According to patent US10975357B2, “Methods and compositions related to differentiated lung cells” (TRUSTEES OF BOSTON UNIVERSITY, priority 2017, dated 2021):

Key:
Assay type in all cases: cell-based, human
RUES2 alveolospheres = experiment: CHIR addback after 1-week withdrawal in alveolospheres; details: CHIR withdrawn week 4-5, added back week 5-6
Experimental: (§1) Where indicated in the text, outgrowth and distal/alveolar differentiation of cells after day 15 was performed in “CK+DCI” medium, consisting of cSFDM base, with 3 μM CHIR99021, 10 ng/mL rhKGF, and 50 nM dexamethasone (Sigma), 0.1 mM 8-Bromoadenosine 3′,5′-cyclic monophosphate sodium salt (Sigma) and 0.1 mM 3-Isobutyl-1-methylxanthine (IBMX) (Sigma) (DCI). Immediately after replating cells on Day 15 10 μM Y-27632 was added to the medium for 24 hours. Additional growth factors or cytokines were added or withdrawn as indicated in the text, including FGF10, TGFb, EGF, OSM (20 ng/ml), TNFa (10 ng/ml), and IL-1b (10 ng/ml) with other concentrations listed in figure legends (FIGS. 9A, 9B).
(§2) Alveolosphere Long Term Culture, Dissociation, and Differentiation. Alveolospheres developed in 3D matrigel culture outgrowths within 3-7 days after day 15 replating, and were maintained in CK+DCI media for weeks to months, as indicated in the text. These spheres were analyzed as follows: Z-stack images of live alveolospheres were taken and processed on a Keyence (Osaka, Japan) BZ-X700 fluorescence microscope. […] To generate single cell suspensions, cell pellets were incubated in 0.05% trypsin and continued through the trypsin-based dissociation protocol described above, after which they could be passaged into fresh matrigel, analyzed by flow cytometry, or sorted as described above. […]

[1] = test system: NKX2-1+ lung epithelial progenitor cells; experiment: SFTPCtdTomato reporter induction in day 15 NKX2-1+ progenitor outgrowth in 3D culture (flow cytometry)
Experimental: Purification of NKX2-1+ Lung Progenitors by Cell Sorting. On day 15 of differentiation, cells were incubated at 37° C. in 0.05% trypsin-EDTA (Invitrogen) for 7-15 minutes, until they reached single cell suspension. Cells were then washed in media containing 10% fetal bovine serum (FBS, ThermoFisher), centrifuged at 300g×5 minutes, and resuspended in sort buffer containing Hank's Balanced Salt Solution (ThermoFisher), 2% FBS, 10 μM Y-27632, and 10 uM calcein blue AM (Life Technologies) for dead cell exclusion. Cells not containing the NKX2-1GFP reporter were subsequently stained with CD47-PerCPCy5.5 and CD26-PE antibodies (mouse monoclonal; Biolegend 1:200; 1×10^6 cells in 100 ul) for 30 minutes at 4° C., washed with PBS, and resuspended in sort buffer. Cells were passed through a 40 um strainer prior to sorting (Falcon). Various live cell populations indicated in the text (i.e. GFP+, GFP−, CD47hi/CD26−,CD47lo) were sorted on a high-speed cell sorter (MoFlo Legacy). Directed Differentiation of NKX2-1+ Lung Progenitor Outgrowth into iAEC2s Day 15 cells, either sorted (as described above) or unsorted (dissociated as described above), were resuspended in undiluted growth factor-reduced matrigel (Corning) at a dilution of 50-100 cells/ul, with droplets ranging in size from 20 ul in 96 well plates to 1 ml in 10 cm tissue culture-treated dishes (Corning). Cells in matrigel suspension were incubated at 37° C. for 20-30 minutes, then warm media was added to the plates. […]
as §2, with “Alveolospheres developed in 3D matrigel culture outgrowths within 3-7 days after day 15 replating, and were maintained in CK+DCI media for weeks to months, as indicated in the text.” left out

[2] = test system: BU3 NKX2-1GFP+/SFTPCtdTomato- population; experiment: Late CHIR withdrawal from sorted NKX2-1GFP+/SFTPCtdTomato- population in 3D culture; details: CHIR withdrawn for 10 days (days 40-50), cells sorted day 38
Experimental: as §1, §2

TNFa/NFkB pathway = experiment: Cytokine stimulation of PSC-derived alveolospheres, TNFa/NFkB pathway (Western blot IkB, IL8 and GM-CSF RT-qPCR); details: TNFa 10 ng/ml and IL1b 10 ng/ml given together
Experimental: as §1
Reverse Transcriptase Quantitative Real Time Polymerase Chain Reaction (RT-qPCR). RT-qPCR was performed as previously described (Hawkins et al. 2017,). Briefly, RNA was isolated according to manufacturer's instructions using the Qiagen miRNeasy mini kit (Qiagen, Venlo, Netherlands). cDNA was generated by reverse transcription of up to 150 ng RNA from each sample using the Applied Biosystems High-Capacity cDNA Reverse Transcription Kit. […] Relative gene expression was calculated based on the average cycle (Ct) value of the technical triplicates, normalized to 18S control, and reported as fold change (2(−ΔΔCT)), with a fold change of 1 being assigned to undifferentiated (day 0) iPSCs or ESCs. […]

Question: For `Cc1c[nH]c(-c2cnc(NCCNc3ccc(C#N)cn3)nc2-c2ccc(Cl)cc2Cl)n1` [CHIR, CHIR99021, reference compound], which “effect of re-exposure to CHIR after 1-week withdrawal” value (RUES2 alveolospheres) is on record?
Answer: The value was “maintained expression of the SFTPCtdTomato reporter and increased proliferation”.

Question: And the “emergence of SFTPC+ cells from NKX2-1+ precursors in presence of Wnt stimulation via CHIR” value ([1]; 17-22 total differentiation days)?
Answer: The value was 2 to 7 days.

Question: What about the “cells with induction of the SFTPCtdTomato reporter” value ([1]; sorted NKX2-1GFP+ cells, by day 21, presence of CHIR in K+DCI base media) of the same compound?
Answer: Its value is 7.17+/−0.89%.

Question: What about the “efficiency of differentiation into SFTPC+ progeny after withdrawal of CHIR” value [2] of the same compound?
Answer: Its value is 68.7%.

Question: “EGF: Recombinant mouse EGF (NSYPGCPSSYDGYCLNGGVCMHIESLDSYTCNCVIGYSGDRCQTRDLRWWELR; UniProt P01132 977-1029, looked up)” was tested. Which “further SFTPC induction efficiency with addition of the factor” value ([1]; factor added to differentiation media, FIG. 9B) did it give?
Answer: Its value is “No consistent further SFTPC induction efficiency”.

Question: How did the “NFkB signaling (IkB protein decrease, IL8 and GM-CSF expression)” value (TNFa/NFkB pathway) turn out when IL1b: Recombinant human IL1-b was run?
Answer: The value was “activated NFkB signaling”.

Question: TNFa was tested. Which “NFkB signaling (IkB protein decrease, IL8 and GM-CSF expression)” value (TNFa/NFkB pathway) did it give?
Answer: Its value is “activated NFkB signaling”.
